Assay results taken from PubChem BioAssay AID1845212 (Molecular Pharmacology Branch, DTP, NCI, 2023).
pIC50: −log10 of the molar value. Activity calls are given as the source filed them. The calls were made as follows: active = viability on the fitted dose curve at most 10% of control; inactive = the rest.

System: NCI-H719 tumor spheroids, viability
Assay: Anticancer human tumor NCI-H719 cell line growth inhibition;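 as to pIC50: spheroids exposed to compounds for seven days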;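 as to viability, T/C: spheroids exposed to compounds for seven days; percent viability relative to DMSO vehicle control as 100%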
Conditions: spheroids with HUVEC and MSC; for pIC50: curve of first compound; for viability, T/C: stronger effect = lower value
In short: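 Complex tumor spheroids combined malignant cells with endothelial cells and mesenchymal stem cells. DNA-damaging drugs and DNA repair inhibitors were tested alone and in combination, at half-log dilutions down from clinical Cmax (top 10 microM if Cmax unknown), 0.25% DMSO final.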

**Q.** With Cc1sc2c(c1C)C(c1ccc(Cl)cc1)=NC(CC(=O)Nc1ccc(O)cc1)c1nnc(C)n1-2 (stereo not given) + Cn1nnc2c(C(N)=O)ncn2c1=O as the compound, how does the pIC50 (second compound 1 µM) read?
**A.** 7.10

**Q.** And the pIC50 (second compound 3.16 µM)?
**A.** 6.86

**Q.** And the pIC50 (second compound 10 µM)?
**A.** 6.70

**Q.** What about the pIC50 (second compound 31.6 µM) of the same compound?
**A.** 7.15

**Q.** What about the pIC50 (second compound 100 µM) of the same compound?
**A.** 7.27

**Q.** What about the viability, T/C (second compound 1 µM, first compound 0.00949 µM) of the same compound?
**A.** 90.8%

**Q.** What about the viability, T/C (second compound 1 µM, first compound 0.03 µM) of the same compound?
**A.** 80.5%

**Q.** And the viability, T/C (second compound 1 µM, first compound 0.0949 µM)?
**A.** 41.9%

**Q.** What about the viability, T/C (second compound 1 µM, first compound 0.3 µM) of the same compound?
**A.** 20.6%

**Q.** And the viability, T/C (second compound 1 µM, first compound 0.949 µM)?
**A.** 4.49%

**Q.** What about the viability, T/C (second compound 1 µM, first compound 3 µM) of the same compound?
**A.** 3.76%

**Q.** What about the viability, T/C (second compound 3.16 µM, first compound 0.00949 µM) of the same compound?
**A.** 95.2%

**Q.** And the viability, T/C (second compound 3.16 µM, first compound 0.03 µM)?
**A.** 98.7%

**Q.** What about the viability, T/C (second compound 3.16 µM, first compound 0.0949 µM) of the same compound?
**A.** 65.9%

**Q.** And the viability, T/C (second compound 3.16 µM, first compound 0.3 µM)?
**A.** 15.6%

**Q.** What about the viability, T/C (second compound 3.16 µM, first compound 0.949 µM) of the same compound?
**A.** 4.84%

**Q.** What about the viability, T/C (second compound 3.16 µM, first compound 3 µM) of the same compound?
**A.** 3.28%

**Q.** And the viability, T/C (second compound 10 µM, first compound 0.00949 µM)?
**A.** 96.5%

**Q.** What about the viability, T/C (second compound 10 µM, first compound 0.03 µM) of the same compound?
**A.** 89%

**Q.** What about the viability, T/C (second compound 10 µM, first compound 0.0949 µM) of the same compound?
**A.** 73.1%

**Q.** What about the viability, T/C (second compound 10 µM, first compound 0.3 µM) of the same compound?
**A.** 39.8%

**Q.** What about the viability, T/C (second compound 10 µM, first compound 0.949 µM) of the same compound?
**A.** 4.17%

**Q.** What about the viability, T/C (second compound 10 µM, first compound 3 µM) of the same compound?
**A.** 2.94%

**Q.** What about the viability, T/C (second compound 31.6 µM, first compound 0.00949 µM) of the same compound?
**A.** 107%

**Q.** And the viability, T/C (second compound 31.6 µM, first compound 0.03 µM)?
**A.** 104%

**Q.** And the viability, T/C (second compound 31.6 µM, first compound 0.0949 µM)?
**A.** 31.9%

**Q.** And the viability, T/C (second compound 31.6 µM, first compound 0.3 µM)?
**A.** 14.3%

**Q.** What about the viability, T/C (second compound 31.6 µM, first compound 0.949 µM) of the same compound?
**A.** 3.77%

**Q.** What about the viability, T/C (second compound 31.6 µM, first compound 3 µM) of the same compound?
**A.** 2.95%

**Q.** And the viability, T/C (second compound 100 µM, first compound 0.00949 µM)?
**A.** 88%

**Q.** And the viability, T/C (second compound 100 µM, first compound 0.03 µM)?
**A.** 65%

**Q.** What about the viability, T/C (second compound 100 µM, first compound 0.0949 µM) of the same compound?
**A.** 37%

**Q.** What about the viability, T/C (second compound 100 µM, first compound 0.3 µM) of the same compound?
**A.** 6.38%

**Q.** And the viability, T/C (second compound 100 µM, first compound 0.949 µM)?
**A.** 3.72%

**Q.** And the viability, T/C (second compound 100 µM, first compound 3 µM)?
**A.** 3%

**Q.** With COc1cc2c(cc1O)CCNC21CSC2c3c(OC(C)=O)c(C)c4c(c3C(COC1=O)N1C(O)C3Cc5cc(C)c(OC)c(O)c5C(C21)N3C)OCO4 (stereo not given) as the compound, how does the viability, T/C (compound 94.9 pM) read?
**A.** 36.8% [middle of 10 runs]

**Q.** And the viability, T/C (compound 0.0003 µM)?
**A.** 8.36% [middle of 10 runs]

**Q.** What about the viability, T/C (compound 0.000949 µM) of the same compound?
**A.** 7.96% [middle of 10 runs]

**Q.** What about the viability, T/C (compound 0.003 µM) of the same compound?
**A.** 0.83% [middle of 9 runs]

**Q.** What about the IC50 (compound alone, run of 12/16/2019) of the same compound?
**A.** 0.0663 nM [middle of 10 runs]

**Q.** With COc1cc(C)[nH]c(=O)c1CN1CCc2c(Cl)cc(C(OC)C3COC3)c(Cl)c2C1=O (stereo not given) + Cn1nnc2c(C(N)=O)ncn2c1=O as the compound, how does the pIC50 (second compound 1 µM) read?
**A.** < 5.00

**Q.** And the pIC50 (second compound 3.16 µM)?
**A.** < 5.00

**Q.** And the pIC50 (second compound 10 µM)?
**A.** < 5.00

**Q.** And the pIC50 (second compound 31.6 µM)?
**A.** < 5.00

**Q.** What about the pIC50 (second compound 100 µM) of the same compound?
**A.** < 5.00

**Q.** What about the viability, T/C (second compound 1 µM, first compound 0.0316 µM) of the same compound?
**A.** 101%

**Q.** And the viability, T/C (second compound 1 µM, first compound 0.1 µM)?
**A.** 101%

**Q.** And the outcome (second compound 1 µM, first compound 0.316 µM)?
**A.** inactive

**Q.** What about the viability, T/C (second compound 1 µM, first compound 1 µM) of the same compound?
**A.** 111%

**Q.** And the viability, T/C (second compound 1 µM, first compound 3.16 µM)?
**A.** 108%

**Q.** What about the viability, T/C (second compound 1 µM, first compound 10 µM) of the same compound?
**A.** 103%

**Q.** What about the viability, T/C (second compound 3.16 µM, first compound 0.0316 µM) of the same compound?
**A.** 103%

**Q.** What about the viability, T/C (second compound 3.16 µM, first compound 0.1 µM) of the same compound?
**A.** 108%

**Q.** And the viability, T/C (second compound 3.16 µM, first compound 0.316 µM)?
**A.** 119%

**Q.** And the viability, T/C (second compound 3.16 µM, first compound 1 µM)?
**A.** 117%

**Q.** What about the viability, T/C (second compound 3.16 µM, first compound 3.16 µM) of the same compound?
**A.** 112%

**Q.** And the viability, T/C (second compound 3.16 µM, first compound 10 µM)?
**A.** 110%

**Q.** What about the viability, T/C (second compound 10 µM, first compound 0.0316 µM) of the same compound?
**A.** 110%

**Q.** What about the viability, T/C (second compound 10 µM, first compound 0.1 µM) of the same compound?
**A.** 110%

**Q.** And the viability, T/C (second compound 10 µM, first compound 0.316 µM)?
**A.** 122%

**Q.** And the viability, T/C (second compound 10 µM, first compound 1 µM)?
**A.** 121%

**Q.** What about the viability, T/C (second compound 10 µM, first compound 3.16 µM) of the same compound?
**A.** 125%

**Q.** What about the viability, T/C (second compound 10 µM, first compound 10 µM) of the same compound?
**A.** 118%

**Q.** What about the viability, T/C (second compound 31.6 µM, first compound 0.0316 µM) of the same compound?
**A.** 118%

**Q.** What about the viability, T/C (second compound 31.6 µM, first compound 0.1 µM) of the same compound?
**A.** 111%

**Q.** And the viability, T/C (second compound 31.6 µM, first compound 0.316 µM)?
**A.** 111%

**Q.** What about the viability, T/C (second compound 31.6 µM, first compound 1 µM) of the same compound?
**A.** 125%

**Q.** And the viability, T/C (second compound 31.6 µM, first compound 3.16 µM)?
**A.** 118%

**Q.** And the viability, T/C (second compound 31.6 µM, first compound 10 µM)?
**A.** 119%

**Q.** And the viability, T/C (second compound 100 µM, first compound 0.0316 µM)?
**A.** 109%

**Q.** What about the viability, T/C (second compound 100 µM, first compound 0.1 µM) of the same compound?
**A.** 101%

**Q.** What about the viability, T/C (second compound 100 µM, first compound 0.316 µM) of the same compound?
**A.** 99.7%

**Q.** What about the viability, T/C (second compound 100 µM, first compound 1 µM) of the same compound?
**A.** 109%

**Q.** What about the viability, T/C (second compound 100 µM, first compound 3.16 µM) of the same compound?
**A.** 115%

**Q.** What about the viability, T/C (second compound 100 µM, first compound 10 µM) of the same compound?
**A.** 109%
